Starred links: 1 amine or outer side, 2 acyl side, 3 side chain; linkers in the order of their positions; H or OH if unused. Positions of bridges follow the written chain, without caps; N, C: chain ends. Non-standard residues stand in square brackets, D forms with d. Residues, ends and D or L forms follow the SMILES beside them. Chains are numbered I, II in the order given. *: point of attachment. ImPyβIm = Cn1cc(NC(=O)c2nccn2C)cc1C(=O)NCCC(=O)Nc1cn(C)c(C(=O)*)n1; HN(CH2CH2O)5CH2CH2NH = C(COCCOCCOCCOCCOCCN[*:2])N[*:1]; 4Amino1MeIm2CO = Cn1cc(N[*:1])nc1C(=O)[*:2]; Benzoyl(4-tBu) = CC(C)(C)c1ccc(C(=O)*)cc1; Lys(Et2) = CCN(CC)CCCC[C@H](N)C(=O)O; X1 = Cn1cc(N[*:1])cc1C(=O)[*:2]; dDab = NCC[C@@H](N)C(=O)O

One test deals with Myotonic Dystrophy 1 affected patient fibroblasts (Coriell GM04602; 1600 CTG repeats). As to the kind of experiment: DM1 foci reduction assay (CAG10-Cy3 FISH, average foci per nucleus). Conditions: Homo sapiens, Fibroblast, 48 h, read-out: Foci Reduction in Fibroblast EC50, 48 h (nM). Type of test: cell-based. Put shortly:
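Read-out is mean nuclear foci per well from CAG10-Cy3 FISH (5 nM probe, overnight 37 °C) with DAPI nuclei, 4 fields per well at 20×. Compounds ran 48 h in 8-point, 3-fold series topping at 3 μM on 1600-CTG GM04602 fibroblasts, alongside GM07492 wild-type cells.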
A word on the EC50: it is the concentration needed to bring the measured effect to its halfway point. Regarding `CC(C)C[C@H](NC(=O)[C@H](C)NC(=O)[C@H](Cc1ccccc1)NC(=O)c1ccc(C(C)(C)C)cc1)C(=O)N[C@@H](CCCCN(C)C1CC2CCC1C2)C(=O)N[C@@H](CO)C(=O)NCCOCCOCCOCCOCCOCCNC(=O)c1cc(NC(=O)c2cc(NC(=O)c3nc(NC(=O)c4cc(NC(=O)[C@@H](N)CCNC(=O)c5nc(NC(=O)CCNC(=O)c6cc(NC(=O)c7nccn7C)cn6C)cn5C)cn4C)cn3C)cn2C)cn1C` (some centres unmarked) [Compound 84], the EC50 was greater than 500 nM. Same read-out and setting: the result for `CCN(CC)CCCC[C@H](NC(C)=O)C(=O)N[C@@H](CO)C(=O)NCCOCCOCCOCCOCCOCCNC(=O)CCNC(=O)c1nc(NC(=O)c2cc(NC(=O)CCCC(=O)c3nc(NC(=O)CCCNC(=O)c4cc(NC(=O)c5nc(NC(=O)CCNC(=O)c6cc(NC(=O)c7nccn7C)cn6C)cn5C)cn4C)cn3C)cn2C)cn1C` [Compound 65] reads greater than 500 nM. On to `CC(=O)N[C@@H](CCCCN(C)C1CC2CCC1C2)C(=O)N[C@@H](CO)C(=O)NCCOCCOCCOCCOCCOCCNC(=O)CCNC(=O)c1nc(NC(=O)c2cc(NC(=O)CCNC(=O)c3nc(NC(=O)CCCNC(=O)c4cc(NC(=O)c5nc(NC(=O)CCNC(=O)c6cc(NC(=O)c7nccn7C)cn6C)cn5C)cn4C)cn3C)cn2C)cn1C` (some centres unmarked) [Compound 67], for which the EC50 lay in the range of 100 to 500 nM. Consider `CC(C)C[C@H](NC(=O)[C@H](C)NC(=O)[C@H](Cc1ccccc1)NC(=O)c1ccc(C(C)(C)C)cc1)C(=O)N[C@@H](CCCCN(C)C1CC2CCC1C2)C(=O)N[C@@H](CO)C(=O)NCCOCCOCCOCCOCCOCCNC(=O)CCNC(=O)c1nc(NC(=O)c2cc(NC(=O)CCNC(=O)c3nc(NC(=O)CCCNC(=O)c4cc(NC(=O)c5nc(NC(=O)CCNC(=O)c6cc(NC(=O)c7nccn7C)cn6C)cn5C)cn4C)cn3C)cn2C)cn1C` (some centres unmarked) [Compound 59], for which the EC50 fell in the range of 100 to 500 nM. For `CCN(CC)CCCC[C@H](NC(=O)[C@H](CC(C)C)NC(=O)[C@H](C)NC(=O)[C@H](Cc1ccccc1)NC(=O)c1ccc(C(C)(C)C)cc1)C(=O)N[C@@H](CO)C(=O)NCCOCCOCCNC(=O)c1cc(NC(=O)c2nc(NC(=O)c3cc(NC(=O)[C@@H](N)CCNC(=O)c4nc(NC(=O)c5cc(NC(=O)c6cc(NC(=O)c7nccn7C)cn6C)cn5C)cn4C)cn3C)cn2C)cn1C` [Compound 79], the EC50 is greater than 500 nM. Turning to `CCN(CC)CCCC[C@H](NC(=O)[C@H](CC(C)C)NC(=O)[C@H](C)NC(=O)[C@H](Cc1ccccc1)NC(=O)c1ccc(C(C)(C)C)cc1)C(=O)N[C@@H](CO)C(=O)NCCOCCOCCOCCOCCOCCNC(=O)c1cc(NC(=O)c2cc(NC(=O)c3nc(NC(=O)c4cc(NC(=O)[C@@H](CCNC(=O)c5nc(NC(=O)CCNC(=O)c6cc(NC(=O)c7nccn7C)cn6C)cn5C)NC(C)=O)cn4C)cn3C)cn2C)cn1C` [Compound 114] (I: {Benzoyl(4-tBu)}-FAL[Lys(Et2)]S / II: Ac-[dDab](ImPyβIm)[X1][4Amino1MeIm2CO][X1][X1]; linker I:C-II:C via HN(CH2CH2O)5CH2CH2NH), the EC50 is greater than 500 nM. For `CC(C)CN(CCCC[C@H](NC(=O)[C@H](CCCN1CCOCC1)NC(=O)[C@@H](NC(=O)[C@H](Cc1ccccc1)NC(=O)c1ccc(C(C)(C)C)cc1)C1CCC1)C(=O)N[C@@H](CO)C(=O)NCCOCCOCCOCCOCCOCCNC(=O)CCNC(=O)c1nc(NC(=O)c2cc(NC(=O)CCNC(=O)c3nc(NC(=O)CCCNC(=O)c4cc(NC(=O)c5nc(NC(=O)CCNC(=O)c6cc(NC(=O)c7nccn7C)cn6C)cn5C)cn4C)cn3C)cn2C)cn1C)C1CC2CCC1C2` (some centres unmarked) [Compound 148], the EC50 is greater than 500 nM. The same measure, in the same setting: next, `CCN(CC)CCCC[C@H](NC(=O)[C@H](CC(C)C)NC(=O)[C@H](C)NC(=O)[C@H](Cc1ccccc1)NC(=O)c1ccc(C(C)(C)C)cc1)C(=O)N[C@@H](CO)C(=O)NCCOCCOCCOCCOCCOCCNC(=O)c1cc(NC(=O)c2nc(NC(=O)CCCNC(=O)c3cc(NC(=O)c4nc(NC(=O)CCNC(=O)c5cc(NC(=O)c6nccn6C)cn5C)cn4C)cn3C)cn2C)cn1C` [Compound 110]: greater than 500 nM; `CCN(CC)CCCC[C@H](NC(=O)[C@H](CC(C)C)NC(=O)[C@H](C)NC(=O)[C@H](Cc1ccccc1)NC(=O)c1ccc(C(C)(C)C)cc1)C(=O)N[C@@H](CO)C(=O)NCCOCCOCCOCCOCCOCCNC(=O)c1nc(NC(=O)CCNC(=O)c2cc(NC(=O)c3nc(NC(=O)CCCNC(=O)c4cc(NC(=O)c5nc(NC(=O)c6cc(NC(=O)c7cc(NC(=O)c8nccn8C)cn7C)cn6C)cn5C)cn4C)cn3C)cn2C)cn1C` [Compound 106]: greater than 500 nM.

Staying with this test, now noted: Homo sapiens, Fibroblast; DM1 fibroblasts, 48 h treatment, 8-point dose response, 3 μM top dose; read-out: Foci Reduction in Fibroblast EC50, 48 h.
For the compound `CCN(c1cc(-c2ccc(CN3CCN(CCOCCOCCOCCOCCOCCNC(=O)CCNC(=O)c4nc(NC(=O)c5cc(NC(=O)CCNC(=O)c6nc(NC(=O)CCCNC(=O)c7cc(NC(=O)c8nc(NC(=O)CCNC(=O)c9cc(NC(=O)c%10nccn%10C)cn9C)cn8C)cn7C)cn6C)cn5C)cn4C)CC3)cc2)cc(C(=O)NCc2c(C)cc(C)[nH]c2=O)c1C)C1CCOCC1` [Compound 166], the EC50 is greater than 500 nM.

With `COc1cc2nc(N3CCCCC3)nc(NC3CCN(CCOCCOCCOCCOCCOCCOCCOCCOCCOCCOCCNC(=O)CCNC(=O)c4nc(NC(=O)c5cc(NC(=O)CCNC(=O)c6nc(NC(=O)CCCNC(=O)c7cc(NC(=O)c8nc(NC(=O)CCNC(=O)c9cc(NC(=O)c%10nccn%10C)cn9C)cn8C)cn7C)cn6C)cn5C)cn4C)CC3)c2cc1OC` [Compound 193], the EC50 is greater than 500 nM. On the same count and under the same terms, the result for `COc1cccc(C(=O)N2CCN(C(=O)CN(CCOCCOCCOCCOCCOCCNC(=O)CCNC(=O)c3nc(NC(=O)c4cc(NC(=O)CCNC(=O)c5nc(NC(=O)CCCNC(=O)c6cc(NC(=O)c7nc(NC(=O)CCNC(=O)c8cc(NC(=O)c9nccn9C)cn8C)cn7C)cn6C)cn5C)cn4C)cn3C)c3cccc(C)c3)CC2)c1OC` [Compound 142] reads 100 to 500 nM. On the same count and under the same terms, the result for `Cn1cc(NC(=O)c2nc(NC(=O)CCNC(=O)c3cc(NC(=O)c4nccn4C)cn3C)cn2C)cc1C(=O)NCCCC(=O)Nc1cn(C)c(C(=O)NCCC(=O)Nc2cc(C(=O)Nc3cn(C)c(C(=O)NCCC(=O)NCCOCCOCCOCCOCCOCCOCCn4cc(CCCCN(Cc5ccc(C(=O)NO)cc5)C(=O)Nc5ccccc5)nn4)n3)n(C)c2)n1` [Compound 126] reads greater than 500 nM. With `COc1c(OCCOCCOCCOCCOCCOCCNC(=O)CCNC(=O)c2nc(NC(=O)c3cc(NC(=O)CCNC(=O)c4nc(NC(=O)CCCNC(=O)c5cc(NC(=O)c6nc(NC(=O)CCNC(=O)c7cc(NC(=O)c8nccn8C)cn7C)cn6C)cn5C)cn4C)cn3C)cn2C)cccc1C(=O)N1CCN(C(=O)COc2cc(C)c(NC(N)=O)c(C)c2)CC1` [Compound 93], the EC50 was greater than 500 nM. On to `CC(C)c1cnn2c(NCc3ccc(OCCOCCOCCOCCOCCOCCNC(=O)c4cc(NC(=O)c5cc(NC(=O)c6nc(NC(=O)c7cc(NC(=O)[C@@H](N)CCNC(=O)c8nc(NC(=O)CCNC(=O)c9cc(NC(=O)c%10nccn%10C)cn9C)cn8C)cn7C)cn6C)cn5C)cn4C)cc3-n3cccn3)nc(OC3CCCNC3)nc12` (some centres unmarked) [Compound 122], for which the EC50 was greater than 500 nM. Take `COc1cccc(C(=O)N2CCN(C(=O)CN(C(=O)COCCOCCOCCOCCOCCNC(=O)CCNC(=O)c3nc(NC(=O)c4cc(NC(=O)CCNC(=O)c5nc(NC(=O)CCCNC(=O)c6cc(NC(=O)c7nc(NC(=O)CCNC(=O)c8cc(NC(=O)c9nccn9C)cn8C)cn7C)cn6C)cn5C)cn4C)cn3C)c3ccc(NC(N)=O)c(C)c3)CC2)c1OC` [Compound 143]: the EC50 was greater than 500 nM. With `COc1c(OCCOCCOCCOCCOCCOCCNC(=O)CCNC(=O)c2nc(NC(=O)c3cc(NC(=O)CCNC(=O)c4nc(NC(=O)CCCNC(=O)c5cc(NC(=O)c6nc(NC(=O)CCNC(=O)c7cc(NC(=O)c8nccn8C)cn7C)cn6C)cn5C)cn4C)cn3C)cn2C)cccc1C(=O)N1CCN(C(=O)COc2cc(C)c(N)c(C)c2)CC1` [Compound 92], the EC50 was greater than 500 nM.

The values above are taken from patent publication US20240166693A1, “METHODS AND COMPOUNDS FOR MODULATING MYOTONIC DYSTROPY 1” (Design Therapeutics, Inc., priority 2020, published 2024).
